In patent US20210107886A1, “PREPARATION OF CYCLIC ACETALS FOR FUEL” (TRIAD NATIONAL SECURITY, LLC, priority 2019, published 2021):
Where two headings read alike, the source gives them in different places.

Assays:
[1] = Kinematic viscosity (Anton Paar SVM 3001); format: physicochemical; details: 40° C.
Procedure: (§1) All chemicals and reagent grade solvents were obtained from commercial vendors and were used as received. ^1H and ^13C NMR spectra were obtained at room temperature on a Bruker AV400 MHz spectrometer, with chemical shifts (6) referenced to the residual solvent signal (^1H and ^13C). GC/MS analysis was carried out using a Hewlett-Packard 6890 GC system equipped with a Hewlett-Packard 5973 mass selective detector. FT-IR measurements were collected on a Perkin Elmer Spectrum Two FT-IR, where a drop of compound was pressed between two KBr plates. FTIR shifts were: very strong (vs), strong (s), medium (m), and weak (w). Combustion calorimeter measurements were performed using an IKA C1 compact combustion calorimeter, the NHOC was calculated by taking into consideration the hydrogen content and subtracting from the gross heat of combustion. DSC measurements were performed using a Netzsch DCS 204 F1 Phoenix. Viscosity and density measurements were performed using an Anton Paar SVM 3001. Elemental analysis was performed by Atlantic Microlabs. YSI measurements were conducted at Yale University.
The physical properties of the five distinct dioxolanes obtained were analyzed to understand their potential as suitable fuel components.^4-5, 8, 16, 18-20 A tabulated summary of these properties are provided in Table 2. The first metric considered was viscosity. […] If a fuel's viscosity falls outside of the ASTM D 975 specification (>4 mm^2 s^−1), it often leads to poor atomization of the fuel, which results in poor combustion and a subsequent loss of power and decrease in fuel economy.^7 In this respect, compounds 1-5 could be used to thin biodiesel to meet standards for petroleum diesel.

[2] = Density (Anton Paar SVM 3001); format: physicochemical; details: 25° C.
Procedure: as §1
(§2) Two additional factors to consider for diesel fuel formulation are density and net heat of combustion (NHOC). Typically, for a chemical compound to be able to be blended with diesel, it should not decrease the density of the fuel mixture below 0.82 g mL-^1, as the energy content of the fuel brought into the engine is dependent on the density of the fuel.^17, 25 Compounds 1-5 maintained densities slightly higher than that of biodiesel, H1-H3, and petroleum diesel. A related metric is the NHOC, which is a measure of the energy contained in a given quantity of a compound. Additionally reported in Table 2 is the lower heating value (LHV) of compounds 1-5. The LHV of a fuel is defined as the amount of heat released by combusting a specified quantity (initially at 25° C.) and returning the temperature of the combustion products to 150° C., which assumes the latent heat of vaporization of water in the reaction products is not recovered.

Flash point = format: physicochemical
[3] = Cloud point of dioxolane blends with 7-component surrogate diesel; format: physicochemical
Procedure: The dioxolanes were blended in percentages of 10%, 20%, or 30% with a 7-component surrogate diesel.
The values range from −9.9° C. to −13.3° C. The numbers of the samples correspond with the dioxolanes as-referenced in FIG. 30. Cloud point is a quality specification for diesel fuels. This is an indicator of the tendency of a fuel to form wax crystals when cold. These crystals can clog the atomizer that injects fuel into the combustion chamber of a diesel engine. Cloud point specifications are a maximum temperature. A material with lower cloud point is more desirable.

Boiling point = format: physicochemical
Water solubility = format: physicochemical
[4] = Net heat of combustion (combustion calorimeter); format: physicochemical
Procedure: as §1, §2

[5] = Lower heating value (LHV); format: physicochemical
Excerpt: as §2

[6] = 40° C.; taken from references; cited from earlier work
[7] = taken from references; cited from earlier work
[8] = 25° C.; taken from references; cited from earlier work
[9] = taken from references, cited from earlier work; for Freezing/MP: freezing point: first value of cell; for Freezing/MP: melting point: second value of cell
[10] = 10% dioxolane in 7-component surrogate diesel (surrogate alone −10.5 ° C.)
[11] = 20% dioxolane in 7-component surrogate diesel (surrogate alone −10.5 ° C.)
[12] = 30% dioxolane in 7-component surrogate diesel (surrogate alone −10.5 ° C.)

CCCCC(CC)C1OC(C)C(C)O1 (centres unmarked) [Compound 2, 2-(1-Ethylpentyl)-4,5-dimethyl-1,3-dioxolane]
Viscosity [1]: 1.88 mm^2 s^−1
Density [2]: 0.885 g/mL
Flash Point (Flash point): 58.3 °C
Cloud point of blend [3, 10]: −10.3 °C
Cloud point of blend [3, 11]: −10.8 °C
Cloud point of blend [3, 12]: −12.5 °C
Boiling Point (Boiling point): 184 °C
solubility (Water solubility): < 0.04 mg/mL
NHOC (net heat of combustion) [4]: 30.41 mJ/L
LHV (lower heating value) [5]: 34.36 mJ/kg

CCCCCC1OC(C)C(C)O1 (centres unmarked) [Compound 4, 4,5-Dimethyl-2-pentyl-1,3-dioxolane]
Viscosity [1]: 1.49 mm^2 s^−1
Density [2]: 0.887 g/mL
Flash Point (Flash point): 69.5 °C
Cloud point of blend [3, 10]: −10.1 °C
Cloud point of blend [3, 11]: −10.8 °C
Cloud point of blend [3, 12]: −10.4 °C
Boiling Point (Boiling point): 177 °C
solubility (Water solubility): < 0.04 mg/mL
NHOC (net heat of combustion) [4]: 29.20 mJ/L
LHV (lower heating value) [5]: 32.92 mJ/kg

CCCCCCCCCCCC1(C)OC(C)C(C)O1 (centres unmarked) [H1, 2,4,5-trimethyl-2-undecyl-1,3-dioxolane]
Viscosity [6]: 4.44 mm^2 s^−1
NHOC (net heat of combustion) [7]: 31.99 mJ/L
Density [8]: 0.868 g/mL
Freezing/MP: freezing point [9]: −51 °C
Freezing/MP: melting point [9]: −18 °C

CCC(CC)C1OC(C)C(C)O1 (centres unmarked) [Compound 1, 2-(1-Ethylpropyl)-4,5-dimethyl-1,3-dioxolane]
Viscosity [1]: 1.26 mm^2 s^−1
Density [2]: 0.893 g/mL
Flash Point (Flash point): 54.4 °C
Cloud point of blend [3, 10]: −10.3 °C
Cloud point of blend [3, 11]: −10.8 °C
Cloud point of blend [3, 12]: −10.8 °C
Boiling Point (Boiling point): 174 °C
solubility (Water solubility): < 0.04 mg/mL
NHOC (net heat of combustion) [4]: 29.45 mJ/L
LHV (lower heating value) [5]: 32.98 mJ/kg

CCCCCCCCCCCC1(C)OCC(C)O1 (centres unmarked) [H2, 2,4-dimethyl-2-undecyl-1,3-dioxolane]
Viscosity [6]: 5.15 mm^2 s^−1
NHOC (net heat of combustion) [7]: 31.99 mJ/L
Density [8]: 0.872 g/mL
Freezing/MP: freezing point [9]: −48 °C
Freezing/MP: melting point [9]: −14 °C

CCCCCCCCCCCC1(C)OCCO1 [H3, 2-methyl-2-undecyl-1,3-dioxolane]
Viscosity [6]: 4.98 mm^2 s^−1
NHOC (net heat of combustion) [7]: 32.28 mJ/L
Density [8]: 0.883 g/mL
Freezing/MP: freezing point [9]: −25 °C
Freezing/MP: melting point [9]: 0 °C

CCCCCCCC1OC(C)C(C)O1 (centres unmarked) [Compound 5, 4,5-Dimethyl-2-heptyl-1,3-dioxolane]
Viscosity [1]: 2.34 mm^2 s^−1
Density [2]: 0.883 g/mL
Flash Point (Flash point): 79.5 °C
Cloud point of blend [3, 10]: −9.9 °C
Cloud point of blend [3, 11]: −10.8 °C
Cloud point of blend [3, 12]: −11.6 °C
Boiling Point (Boiling point): 188 °C
solubility (Water solubility): < 0.04 mg/mL
NHOC (net heat of combustion) [4]: 30.06 mJ/L
LHV (lower heating value) [5]: 34.04 mJ/kg

CCCC1OC(C)C(C)O1 (centres unmarked) [Compound 3, 4,5-Dimethyl-2-propyl-1,3-dioxolane]
Viscosity [1]: 0.94 mm^2 s^−1
Density [2]: 0.894 g/mL
Flash Point (Flash point): 42.5 °C
Cloud point of blend [3, 10]: −11.5 °C
Cloud point of blend [3, 11]: −12 °C
Cloud point of blend [3, 12]: −13.3 °C
Boiling Point (Boiling point): 161 °C
solubility (Water solubility): < 0.04 mg/mL
NHOC (net heat of combustion) [4]: 27.67 mJ/L
LHV (lower heating value) [5]: 30.95 mJ/kg
